Read-outs that look alike come from different tables or passages of the source.
Legend:
[1] = test system: SW48 cells; assay: Proliferation assay SW48 (CellTiterGlo); assay type: cell-based; settings: Homo sapiens, SW48, 96 h, read-out: Proliferation Assay SW48 GI50
Description: The colon carcinoma cell lines SW48 (RRID: CVCL_1724), HCT 116 (RRID: CVCL_0291) and SNU-407 (RRID: CVCL_5058) were obtained from ATCC. The WRN-knockdown insensitive colon carcinoma cell line DLD-1 (RRID: CVCL_0248) was obtained from the Korean Cell Line Bank (KCLB), and used to generate a derivative in which the endogenous WRN gene copies were knocked out by CRISPR-mediated editing using standard CRISPR methods. The resulting cell line, DLD1-WRN-KO, was used to assess potential off-target compound effects.
SW48, SNU-407 and DLD1-WRN-KO cells were cultured in growth medium composed of RPMI-1640 (Amimed Cat #1-41F22-1), 2 mM L-Glutamine (Amimed Cat #5-10K50), 10 mM HEPES (Gibco Cat #15630-056), 1 mM sodium pyruvate (Amimed Cat #5-60F00-H), 1× Penicillin-Streptomycin (Amimed Cat #4-01F00-H) and 10% fetal calf serum (Amimed Cat #2-01F30-G, Lot #LB11566P). HCT 116 cells were cultured in growth medium composed of McCoys 5A (Amimed catalog #1-18F01-1), 2 mM L-Glutamine (Amimed Cat #5-10K50), 1× Penicillin-Streptomycin (Amimed Cat #4-01F00-H) and 10% fetal calf serum (Amimed Cat #2-01F30-G, Lot #LB11566P). All cells were maintained at 37° C. in a humidified 5% CO2 incubator.
Following filtration through a Steriflip-NY 20 μm filter (Millipore Cat #SCNY00020), trypsinized cells were seeded in 100 microliters growth medium at 2,000 (SW48) or 1,500 (SNU-407, DLD1-WRN-KO, HCT 116) cells/well into white, clear-bottom 96-well plates (Costar Cat #3903). Three replicate plates were prepared for each compound treatment condition. In addition, one plate (termed “day 0”) was prepared to quantify the number of viable cells at the time of compound addition. Following overnight incubation at 37° C. in a humidified 5% CO2 atmosphere, eight 3-fold serial dilutions of a given compound stock (obtained at a concentration of 10 mM in DMSO and stored at 4° C.) were dispensed directly into each of the triplicate assay plates using a HP 300D non-contact Digital Dispenser (TECAN). The final concentration of DMSO was normalized to 0.1% in all wells. 96 hours after compound addition, cellular ATP levels as a surrogate for cell viability was assessed following addition of 50 microliters CellTiterGlo (Promega Cat #G7573) reagent and luminescence quantification on a MPLEX multi-mode plate-reader (TECAN) following a 10 minute incubation at room temperature. The number of viable cells in the “day 0” plate were quantified identically on the day of compound addition.
For data analysis, the assay background signal that was determined in wells containing medium, but no cells, was subtracted from all other data points prior to further calculations. The extent of growth inhibition and potential cell kill was assessed by comparing the ATP levels (measured using CellTiterGlo, Promega) in compound-treated cells with those present at the time of compound addition. To this end, the following conditional concept was programmatically applied in HELIOS, an in-house software applying a multi-step decision tree to arrive at optimal concentration response curve fits (Gubler et al, SLAS DOI: 10.1177/2472555217752140) to calculate % growth (% G) for each compound-treated well: % G=(T−V0)/V0))*100 when T<V0, and % G=(T−V0)/(V−V0)))*100 when T≥V0, where V0 is the viability level at time of compound addition, while V and T represent vehicle-control and compound-treated viability levels, respectively, at the end of the compound incubation. 100%, 0% and −100% signify absence of growth inhibition, growth stasis, and complete cell kill, respectively. Compound concentrations leading to half-maximal growth inhibition (GI50) and residual cell viability at the highest tested compound concentration (Data (cmax), expressed in percent) were routinely calculated. Data analysis can also be carried out using commercially available software designed to derive IC50 values using 4-parameter fits (e.g. GraphPad Prism, XL fit). […]

[2] = target: T1, WRN helicase (aa N517-P1238) (Homo sapiens, UniProt Q14191); assay: WRN ATPase assay (DNA dependent ATP hydrolysis, ADP-Glo); assay type: biochemical; settings: 3 hours pre-incubation, 300 micromolar ATP, FLAP26 DNA; geometric mean of at least 2
T1 construct: The core helicase motif of the WRN protein (aa N517-P1238) was produced for this assay; His (N); ZZ (N); 3C protease cleavage site (N); made in house; host or cells: Sf21 insect cells (baculovirus; virus and BIICs made in SF9)
Description: An ATPase assay was set up to measure the DNA dependent ATP hydrolysis activity of WRN helicase. This assay was used also to assess the inhibition properties of compounds of the invention on DNA dependent WRN ATPase activity.
The core helicase motif of the WRN protein (aa N517-P1238) was produced for this assay (protein production as described above). […] The ADP-Glo assay kit (Promega, Madison, WI) allowing the quantification of ADP produced in ATP hydrolysis reactions was used for setting up this assay.
Time course experiments were first performed in order to determine the best enzymatic assay conditions (including buffer conditions, reaction time and concentrations of protein, ATP and DNA substrates). A typical reaction consists of 10 nM WRN protein, 0.2 nM FLAP26, and 300 micromolar ATP in the following assay buffer: 30 mM Tris pH7.5, 2 mM MgCl2, 0.02% BSA, 50 mM NaCl, 0.1% pluronic F127 prepared in DNAse free water.
To evaluate the inhibition properties of compounds of the invention, serial dilutions were prepared in DMSO (10 half log dilutions from a 10 mM DMSO solution). […] The reaction was stopped with the addition of 5 microliters of the first ADP-Glo reagent and incubated for one hour to remove the excess amount of ATP. Afterwards, 10 microliters of ATP detection reagent was added and incubated for an additional hour before reading. Luminescence output was recorded using Tecan 1000 reader, with 5 minutes delay before reading. Each concentration of compound was tested in duplicates in the assay plate.
Following normalization of activity values for the wells to % inhibition (% inhibition=[(high control-sample)/(high control-low control)]×100), IC50 fitting was carried out from the duplicate determinations present on each plate according to [4]. Data analysis can also be carried out using commercially available software designed to derive IC50 values using 4-parameter fits (e.g. GraphPad Prism, XL fit). The reported IC50 values are the geometrical means of at least 2 independent replicates.

[3] = SW48 colon carcinoma cells, 96 hours, CellTiterGlo, geometric mean of at least 2

T1 sequence (Q14191 517-1238): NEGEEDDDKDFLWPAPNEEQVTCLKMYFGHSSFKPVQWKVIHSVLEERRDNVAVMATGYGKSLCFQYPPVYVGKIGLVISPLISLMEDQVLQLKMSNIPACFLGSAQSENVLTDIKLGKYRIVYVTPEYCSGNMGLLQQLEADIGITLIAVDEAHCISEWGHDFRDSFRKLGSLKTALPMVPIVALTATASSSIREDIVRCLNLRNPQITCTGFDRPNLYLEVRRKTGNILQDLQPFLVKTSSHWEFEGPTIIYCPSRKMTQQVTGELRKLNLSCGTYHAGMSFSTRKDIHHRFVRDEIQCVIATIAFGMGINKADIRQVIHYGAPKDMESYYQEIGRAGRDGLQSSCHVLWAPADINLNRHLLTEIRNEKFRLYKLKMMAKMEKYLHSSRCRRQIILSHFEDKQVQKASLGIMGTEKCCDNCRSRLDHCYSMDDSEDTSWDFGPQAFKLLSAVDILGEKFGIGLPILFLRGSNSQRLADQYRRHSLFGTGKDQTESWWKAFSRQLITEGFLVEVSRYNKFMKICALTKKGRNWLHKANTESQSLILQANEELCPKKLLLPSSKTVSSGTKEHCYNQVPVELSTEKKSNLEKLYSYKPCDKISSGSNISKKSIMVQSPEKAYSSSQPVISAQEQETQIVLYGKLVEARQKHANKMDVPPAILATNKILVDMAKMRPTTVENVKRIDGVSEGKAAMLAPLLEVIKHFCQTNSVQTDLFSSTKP

Structure (SMILES) | GI50 [1] [µM] | GI50 [1, 3] [µM] | IC50 [2] [µM]
CCc1c(N2CCN(C(=O)c3nccc4cc[nH]c34)CC2)c(=O)n2nc(C3=CCOCC3)nc2n1CC(=O)Nc1ccc(C(F)(F)F)cc1C [Example 41, 2-(6-(4-(1H-pyrrolo[2,3-c]pyridine-7-carbonyl)piperazin-1-yl)-2-(3,6-dihydro-2H-pyran-4-yl)-5-ethyl-7-oxo-[1,2,4]triazolo[1,5-a]pyrimidin-4(7H)-yl)-N-(2-methyl-4-(trifluoromethyl)phenyl)acetamide] | 0.1 | – | –
CCc1ccc(NC(=O)Cn2c(C)c(C3CCN(C(C)=O)CC3)c(=O)n3nc(C4=CCOCC4)nc23)cc1Cl [Example 144, 2-(6-(1-acetylpiperidin-4-yl)-2-(3,6-dihydro-2H-pyran-4-yl)-5-methyl-7-oxo-[1,2,4]triazolo[1,5-a]pyrimidin-4(7H)-yl)-N-(3-chloro-4-ethylphenyl)acetamide] | – | 3 | –
CC(=O)N1CCC(c2c(C)n(CC(=O)Nc3ccc(C(F)(F)F)cc3)c3nc(C4=CCCCC4)nn3c2=O)CC1 [Example 145, 2-(6-(1-acetylpiperidin-4-yl)-2-(cyclohex-1-en-1-yl)-5-methyl-7-oxo-[1,2,4]triazolo[1,5-a]pyrimidin-4(7H)-yl)-N-(4-(trifluoromethyl)phenyl)acetamide] | – | 2 | –

Second part, the compound after the results:

GI50 [1] [µM] | GI50 [1, 3] [µM] | IC50 [2] [µM] | Structure (SMILES)
– | 4 | 0.2 | Cc1c(N2CCN(C(=O)c3cc(F)ccc3O)CC2)c(=O)n2nc(N3CCOCC3)nc2n1CC(=O)Nc1ccc(C(F)(F)F)cc1 [Example 151, 2-(6-(4-(5-fluoro-2-hydroxybenzoyl)piperazin-1-yl)-5-methyl-2-morpholino-7-oxo-[1,2,4]triazolo[1,5-a]pyrimidin-4(7H)-yl)-N-(4-(trifluoromethyl)phenyl)acetamide]
– | > 10 | 0.09 | Cc1c(N2CCN(C(=O)NNC(=O)C(F)(F)F)CC2)c(=O)n2nc(C3=CCOCC3)nc2n1CC(=O)Nc1ccc(C(F)(F)F)cc1 [Example 165, 2-(2-(3,6-dihydro-2H-pyran-4-yl)-5-methyl-7-oxo-6-(4-(2-(2,2,2-trifluoroacetyl)hydrazine-1-carbonyl)piperazin-1-yl)-[1,2,4]triazolo[1,5-a]pyrimidin-4(7H)-yl)-N-(4-(trifluoromethyl)phenyl)acetamide]
